Assay results as given in paper PMC5824342 (Bioconjugate Chemistry, 2017).

Assays:
[1] = target: GRPR (Homo sapiens, UniProt P30550); experiment: Competitive binding assay, displacement of 125I-[Tyr4]BBN on PC-3 cells
[2] = LC-MS, previous study of the authors; cited from earlier work

Chain of GRPR (P30550 whole entry): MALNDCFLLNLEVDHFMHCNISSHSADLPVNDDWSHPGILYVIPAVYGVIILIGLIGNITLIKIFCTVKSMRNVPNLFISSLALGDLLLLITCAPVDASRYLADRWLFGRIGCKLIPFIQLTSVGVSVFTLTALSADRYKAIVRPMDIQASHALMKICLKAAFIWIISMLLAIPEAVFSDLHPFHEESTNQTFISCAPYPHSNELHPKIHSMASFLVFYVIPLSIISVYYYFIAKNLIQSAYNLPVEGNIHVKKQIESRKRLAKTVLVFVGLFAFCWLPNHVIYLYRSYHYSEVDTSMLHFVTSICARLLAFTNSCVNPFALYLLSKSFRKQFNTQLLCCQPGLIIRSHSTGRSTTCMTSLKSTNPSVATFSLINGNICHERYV

Structure (SMILES)	IC50 [1] [nM]	t1/2 of degradation during incubation in rat hepatocytes [2] [min]
CSCC[C@H](NC(=O)[C@H](CC(C)C)NC(=O)[C@H](Cc1c[nH]cn1)NC(=O)CNC(=O)[C@@H](NC(=O)[C@H](C)NC(=O)[C@H](Cc1c[nH]c2ccccc12)NC(=O)[C@H](CCC(N)=O)NC(=O)CCCCCNC(=O)CN1CCN(CC(=O)O)CCN(CC(=O)O)CC1)C(C)C)C(N)=O [NOTA–Aca–BBN7–14]	1.8 ± 0.67	–
CSCC[C@H](NC(=O)[C@H](CC(C)C)NC(=O)[C@H](Cc1cnc[nH]1)NC(=O)CNC(=O)[C@@H](NC(=O)[C@H](C)NC(=O)[C@H](Cc1c[nH]c2ccccc12)NC(=O)[C@@H](N)CCC(N)=O)C(C)C)C(N)=O [BBN7–14]	–	4
